Consider 78 sequences from the OligoGym collection.

Values joined by “and” are separate entries in the source; they are usually repeats but may differ in a detail not shown here. Identical values can stand only once. After the bases stand the sugars from the 5' end (letter, count) and the backbone: PS all phosphorothioate, else s phosphorothioate and o phosphodiester by linkage. Methylation of C is not given here. e = 2'-O-(2-methoxyethyl) (MOE); d = 2'-deoxy (DNA)

The series addresses DGAT2. As to conditions: ASO.

In the case of “CAAACAGATTAAAGTTGCTC (sugars e5 d10 e5, PS)”, the target mRNA inhibition (HepG2, 2.5 µM) is 78% and 72%; the target mRNA inhibition (HepG2, 10 µM) is 90% and 91%.

Sequence “CAAAGATATAGTTCCTGGTG (sugars e5 d10 e5, PS)” yielded a target mRNA inhibition (HepG2, 0.12 µM) of 61%. Same read-out and setting: then “CAACAGGCTCTGGTTCCATG (sugars e5 d10 e5, PS)”, with 56%. Consider “CAAGGATGACCTTGGGTCAG (sugars e5 d10 e5, PS)”, for which the target mRNA inhibition (HepG2, 2.5 µM) is 18% and the target mRNA inhibition (HepG2, 10 µM) was found to be 44%. The sequence “CAAGGCTGAGTCTGTGCTGC (sugars e5 d10 e5, PS)” yielded a target mRNA inhibition (HepG2, 0.12 µM) of 24%.

On to “CACAATGGGAATGGTATCGC (sugars e5 d10 e5, PS)”, for which the target mRNA inhibition is, setting by setting: (HepG2, 2.5 µM) 59%; (HepG2, 10 µM) 91%.

In turn, “CACACAGCCCAGTTTCGGAC (sugars e5 d10 e5, PS)” yielded a target mRNA inhibition (HepG2, 0.12 µM) of 24%. For “CACAGTCATCTTGTGTACAT (sugars e5 d10 e5, PS)”, the target mRNA inhibition runs as follows: (HepG2, 2.5 µM) 74% and 76%; (HepG2, 10 µM) 92% and 93%. Take “CACCAGGGCCTCCATGTACA (sugars e2 d13 e5, PS)”: the target mRNA inhibition (HepG2, 0.12 µM) came out at 69%. Turning to “CACCAGGGCCTCCATGTACA (sugars e5 d10 e5, PS)”, the target mRNA inhibition stood at 31% (HepG2, 2.5 µM); 69% (HepG2, 10 µM); 26% (HepG2, 20 µM).

Consider “CACCATAATCTGCACAGGTT (sugars e5 d10 e5, PS)”, for which the target mRNA inhibition was 86% and 94% (HepG2, 2.5 µM); 88% and 93% (HepG2, 10 µM). For the sequence “CACCTGCTTGTACACTTCAT (sugars e5 d10 e5, PS)”, the target mRNA inhibition is 59% (HepG2, 2.5 µM) and 90% (HepG2, 10 µM).

The sequence “CACTAATTCTGGGCTTCCAG (sugars e5 d10 e5, PS)” came in with a target mRNA inhibition (HepG2, 2.5 µM) of 64% and a target mRNA inhibition (HepG2, 10 µM) of 96%. For the setting “HepG2, 0.12 µM”, “CACTGGAGCACTGAGATGAC (sugars e2 d13 e5, PS)” displayed a target mRNA inhibition of 61%. On the same count and under the same terms, the value for “CACTGGAGCACTGAGATGAC (sugars e3 d14 e3, PS)” was 55%. Turning to “CACTTGATCTGGGACCCAAA (sugars e5 d10 e5, PS)”, the target mRNA inhibition worked out at 41% (HepG2, 2.5 µM) and 92% (HepG2, 10 µM). As for “CACTTGCTTGAGGTCAGGGT (sugars e5 d10 e5, PS)”, the target mRNA inhibition is, setting by setting: (HepG2, 2.5 µM) 81% and 75%; (HepG2, 10 µM) 81% and 74%. As for “CAGATACCTCCAGACATCAG (sugars e5 d10 e5, PS)”, the target mRNA inhibition (HepG2, 0.12 µM) came to 38%.

The sequence “CAGCACTAATTTTTACAACT (sugars e5 d10 e5, PS)” had a target mRNA inhibition (HepG2, 2.5 µM) of 86% and a target mRNA inhibition (HepG2, 10 µM) of 95%.

For the sequence “CAGCACTGACATGGTAAGTC (sugars e5 d10 e5, PS)”, the target mRNA inhibition reads like this: (HepG2, 2.5 µM) 79% and 69%; (HepG2, 10 µM) 92% and 97%.

Where the note is “HepG2, 0.12 µM”, “CAGCAGGTTGTGTGTCTTCA (sugars e2 d13 e5, PS)” had a target mRNA inhibition of 57%. The sequence “CAGCTAATGATACAAGGTTG (sugars e5 d10 e5, PS)” had a target mRNA inhibition (HepG2, 0.12 µM) of 55%. “CAGCTGGATGGGAAAGTAGT (sugars e5 d10 e5, PS)” gave a target mRNA inhibition (HepG2, 0.12 µM) of 21%. With “CAGCTGTGATGACTTCCCAG (sugars e5 d10 e5, PS)”, the target mRNA inhibition came to 49% (HepG2, 2.5 µM) and 81% (HepG2, 10 µM). Regarding “CAGGACCCACTGGAGCACTG (sugars e2 d13 e5, PS)”, the target mRNA inhibition (HepG2, 0.12 µM) is 78%. “CAGGACCCACTGGAGCACTG (sugars e3 d14 e3, PS)”: the target mRNA inhibition (HepG2, 0.12 µM) worked out at 71%. Still for that read-out and setting: the value for “CAGGCAGCCTGAAGGACACT (sugars e5 d10 e5, PS)” was 49%; that for “CAGGCAGGTGTCAGAGGGCT (sugars e5 d10 e5, PS)” was 21%. Same read-out and setting: then “CAGGCATGGAGCTCAGAGAC (sugars e5 d10 e5, PS)”, with 57%. Take “CAGGGTCCTCTCCGCTGCCT (sugars e5 d10 e5, PS)”: the target mRNA inhibition reads like this: (HepG2, 2.5 µM) 78% and 80%; (HepG2, 10 µM) 85% and 87%. “CAGGTAAGGCCGTATGCCTG (sugars e2 d13 e5, PS)”: for the setting “HepG2, 0.12 µM”, the target mRNA inhibition is 59%. Still for that read-out and setting: the value for “CAGGTAAGGCCGTATGCCTG (sugars e3 d14 e3, PS)” was 72%.

Sequence “CAGTTTCGGACCCACTGTGA (sugars e2 d13 e5, PS)” displayed a target mRNA inhibition (HepG2, 0.12 µM) of 77%. Turning to “CATACTAGACTATGCAGCCT (sugars e5 d10 e5, PS)”, the target mRNA inhibition runs as follows: (HepG2, 2.5 µM) 89% and 69%; (HepG2, 10 µM) 97% and 93%. Under “HepG2, 0.12 µM”, “CATTGCCACTCCCATTCTTT (sugars e2 d13 e5, PS)” returned a target mRNA inhibition of 40%.

Regarding “CCAAGCAGGAGCTGGACAGA (sugars e5 d10 e5, PS)”, the target mRNA inhibition (HepG2, 0.12 µM) came to 19%.

In the case of “CCAATGCACCTTGTATTAAA (sugars e5 d10 e5, PS)”, the target mRNA inhibition runs as follows: (HepG2, 2.5 µM) 72%; (HepG2, 10 µM) 92%.

“CCAATGCCTAGGTCACA (sugars e3 d10 e4, PS)”: the target mRNA inhibition is, setting by setting: (HepG2, 2.5 µM) 61%; (HepG2, 10 µM) 83%. Sequence “CCACCACCTAGAACAGGGCA (sugars e5 d10 e5, PS)” yielded a target mRNA inhibition (HepG2, 0.12 µM) of 55%. For the sequence “CCACTGGAGCACTGAGATGA (sugars e5 d10 e5, PS)”, under “HepG2, 0.12 µM”, the target mRNA inhibition was found to be 71%.

For the sequence “CCACTGTGACCTCCTGCCAC (sugars e5 d10 e5, PS)”, for the setting “HepG2, 0.12 µM”, the target mRNA inhibition was found to be 30%.

“CCAGCCCCCAGGTGTCGGAG (sugars e5 d10 e5, PS)” displayed a target mRNA inhibition (HepG2, 0.12 µM) of 50%.

“CCAGGTAAGGCCGTATGCCT (sugars e3 d14 e3, PS)” displayed a target mRNA inhibition (HepG2, 0.12 µM) of 71%. Where the note is “HepG2, 0.12 µM”, “CCAGGTGTCGGAGGAGAAGA (sugars e5 d10 e5, PS)” displayed a target mRNA inhibition of 53%. Same read-out and setting: the value for “CCAGTTTCGGACCCACTGTG (sugars e3 d14 e3, PS)” was 82%. “CCATGTCAGAGAGGCTC (sugars e3 d10 e4, PS)”: for the setting “HepG2, 2.5 µM”, the target mRNA inhibition is 81% and 76%. Regarding “CCATGTCAGAGAGGCTCAGC (sugars e5 d10 e5, PS)”, the target mRNA inhibition is, setting by setting: (HepG2, 2.5 µM) 45%; (HepG2, 10 µM) 86%. “CCCACTGGAGCACTGAGATG (sugars e2 d13 e5, PS)” yielded a target mRNA inhibition (HepG2, 0.12 µM) of 70%. As for “CCCACTGGGACATCTGGCCC (sugars e5 d10 e5, PS)”, the target mRNA inhibition was determined as 66% (HepG2, 2.5 µM) and 88% (HepG2, 10 µM). “CCCCCATCCTCATCCTGGAG (sugars e5 d10 e5, PS)” had a target mRNA inhibition (HepG2, 0.12 µM) of 7%. In the case of “CCGGACTGAATGTCACC (sugars e3 d10 e4, PS)”, under “HepG2, 2.5 µM”, the target mRNA inhibition is 79% and 82%. Consider “CCTAAGGAGTGAGGGTATCT (sugars e5 d10 e5, PS)”, for which the target mRNA inhibition was 39% and 50% (HepG2, 2.5 µM); 87% and 92% (HepG2, 10 µM). As to “CCTAGGTACAAGTTTCTCCA (sugars e5 d10 e5, PS)”, the target mRNA inhibition reads like this: (HepG2, 2.5 µM) 65%; (HepG2, 10 µM) 87%.

Consider “CCTCAGGAAGGCACAGAAAA (sugars e5 d10 e5, PS)”, for which the target mRNA inhibition (HepG2, 0.12 µM) came out at 40%. On the same count and under the same terms, the value for “CCTCCAGACATCAGGTACTC (sugars e5 d10 e5, PS)” was 29%. “CCTCCAGGACCTCAGTCTCC (sugars e5 d10 e5, PS)” came in with a target mRNA inhibition (HepG2, 0.12 µM) of 66%.

“CCTCCTCGAAGATCACCTGC (sugars e5 d10 e5, PS)” registered a target mRNA inhibition (HepG2, 0.12 µM) of 49%. Take “CCTCTCCTGTTTGATGGGTA (sugars e5 d10 e5, PS)”: the target mRNA inhibition (HepG2, 2.5 µM) was 78% and 85% and 87%; the target mRNA inhibition (HepG2, 10 µM) was 91% and 78% and 88%.

For the sequence “CCTCTTAGAAGTAATGCTTC (sugars e5 d10 e5, PS)”, the target mRNA inhibition was 83% and 78% (HepG2, 2.5 µM); 92% and 90% (HepG2, 10 µM). For “CCTTAGCTTTAATCCAGGAT (sugars e5 d10 e5, PS)”, the target mRNA inhibition (HepG2, 2.5 µM) is 70% and the target mRNA inhibition (HepG2, 10 µM) came out at 89%. Take “CGCAGGACCCCGGAGTAGGC (sugars e2 d13 e5, PS)”: the target mRNA inhibition (HepG2, 0.12 µM) was 71%.

Regarding “CGCAGGACCCCGGAGTAGGC (sugars e5 d10 e5, PS)”, the target mRNA inhibition (HepG2, 0.12 µM) was 75% and 70%. On the same count and under the same terms, the value for “CGCGCAGGACCCCGGAGTAG (sugars e3 d14 e3, PS)” was 69%; that for “CGCGCAGGACCCCGGAGTAG (sugars e5 d10 e5, PS)” was 74%.

Turning to “CGTTGGTCTTTTTGGCTGCC (sugars e5 d10 e5, PS)”, the target mRNA inhibition came to 88% (HepG2, 2.5 µM) and 81% (HepG2, 10 µM). “CTATAGAATCAGACAGACCT (sugars e5 d10 e5, PS)” displayed a target mRNA inhibition (HepG2, 2.5 µM) of 31% and a target mRNA inhibition (HepG2, 10 µM) of 78%. Regarding “CTCACATGCCTGAGGGCAGC (sugars e5 d10 e5, PS)”, the target mRNA inhibition runs as follows: (HepG2, 2.5 µM) 65%; (HepG2, 10 µM) 87%. For the sequence “CTCAGAGACTCAGCCGCACC (sugars e5 d10 e5, PS)”, the target mRNA inhibition by setting is: (HepG2, 0.12 µM) 80%; (HepG2, 2.5 µM) 30%; (HepG2, 10 µM) 91%; (HepG2, 20 µM) 54%.

For the sequence “CTCTGCGCGATTCACTGAGG (sugars e5 d10 e5, PS)”, the target mRNA inhibition is, setting by setting: (HepG2, 2.5 µM) 53%; (HepG2, 10 µM) 86%. For the sequence “CTGAATCAAAATCTGCATTT (sugars e5 d10 e5, PS)”, the target mRNA inhibition (HepG2, 0.12 µM) was 28%. “CTGACACACAATATCCATGG (sugars e5 d10 e5, PS)”: the target mRNA inhibition is, setting by setting: (HepG2, 2.5 µM) 76% and 57%; (HepG2, 10 µM) 93% and 85%. With “CTGCACTCTCTCTGCACACT (sugars e5 d10 e5, PS)”, the target mRNA inhibition is 65% and 83% (HepG2, 2.5 µM); 81% and 90% (HepG2, 10 µM). With “CTGCAGGCCACTCCCAGTAC (sugars e5 d10 e5, PS)”, the target mRNA inhibition (HepG2, 0.12 µM) turned out to be 40%.

Sequence “CTGCGCGATTCACTGAGGAC (sugars e5 d10 e5, PS)” returned a target mRNA inhibition (HepG2, 2.5 µM) of 78% and a target mRNA inhibition (HepG2, 10 µM) of 71%. With “CTGGAACTTCTTCTGGACCC (sugars e5 d10 e5, PS)”, for the setting “HepG2, 0.12 µM”, the target mRNA inhibition came out at 25%. The same measure, in the same setting: then “CTGGTCCAGGGAGAGACCAA (sugars e5 d10 e5, PS)”, with 25%; and “CTGGTGGTCAGCAGGTTGTG (sugars e5 d10 e5, PS)”, with 57%. Regarding “CTGTGGCACTAAGCTAGGCA (sugars e5 d10 e5, PS)”, the target mRNA inhibition is 64% (HepG2, 2.5 µM) and 82% (HepG2, 10 µM).
